The target of assay [1] is T1, FZD6 (Nluc–FZD6; SNAP–FZD6; SNAP–FZD6–Rluc8; FLAG–FZD6–Nluc) (Homo sapiens, UniProt O60353).
T1 construct: expressed in SMO-knockout HEK293 cells
T1 sequence (O60353 19-706): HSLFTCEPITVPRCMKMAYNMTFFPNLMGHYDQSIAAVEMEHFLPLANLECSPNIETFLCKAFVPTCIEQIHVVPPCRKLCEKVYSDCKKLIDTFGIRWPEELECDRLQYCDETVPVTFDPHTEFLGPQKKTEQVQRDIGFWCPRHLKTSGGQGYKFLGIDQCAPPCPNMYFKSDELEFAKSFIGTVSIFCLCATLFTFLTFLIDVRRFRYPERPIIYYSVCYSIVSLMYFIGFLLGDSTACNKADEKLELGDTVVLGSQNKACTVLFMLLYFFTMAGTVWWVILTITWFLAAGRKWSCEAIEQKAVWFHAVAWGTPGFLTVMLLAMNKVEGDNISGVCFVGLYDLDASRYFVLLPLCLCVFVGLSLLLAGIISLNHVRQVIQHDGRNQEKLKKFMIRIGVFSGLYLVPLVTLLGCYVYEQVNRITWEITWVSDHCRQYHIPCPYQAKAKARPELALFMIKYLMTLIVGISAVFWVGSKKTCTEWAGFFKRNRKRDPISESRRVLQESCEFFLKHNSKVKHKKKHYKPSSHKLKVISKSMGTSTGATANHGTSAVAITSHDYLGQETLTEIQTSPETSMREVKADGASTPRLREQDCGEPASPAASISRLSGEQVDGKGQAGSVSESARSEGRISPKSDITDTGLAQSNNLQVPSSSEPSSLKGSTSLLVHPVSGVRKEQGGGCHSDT
As to the kind of experiment: NanoBRET saturation binding, living SMO-knockout HEK293 cells. The assay is classed as cell-based. Particulars: Nluc–FZD6, 90 min, 37 °C; labelled compound.

The target of assay [2] is T1, FZD6 (Nluc–FZD6; SNAP–FZD6; SNAP–FZD6–Rluc8; FLAG–FZD6–Nluc). Nature of the assay: NanoBRET competition binding, living SMO-knockout HEK293 cells. The assay is classed as cell-based. For orientation: BRET reads energy transfer from a luciferase to a nearby fluorophore.
Assay [3] shares this target. Nature of the assay: BRET Venus–mGsi recruitment in SMO-knockout HEK293 cells. The assay is classed as cell-based. Particulars: agonist; bell-shaped curve.
Assay [4] deals with T2, FZD6–FlAsH–TFP (Homo sapiens, UniProt O60353, INS404FLNCCPGCCMEP).
T2 construct: from FZD6–GFP; expressed in HEK293 cells
T2 sequence (O60353 with tags, fused parts or gaps INS404FLNCCPGCCMEP): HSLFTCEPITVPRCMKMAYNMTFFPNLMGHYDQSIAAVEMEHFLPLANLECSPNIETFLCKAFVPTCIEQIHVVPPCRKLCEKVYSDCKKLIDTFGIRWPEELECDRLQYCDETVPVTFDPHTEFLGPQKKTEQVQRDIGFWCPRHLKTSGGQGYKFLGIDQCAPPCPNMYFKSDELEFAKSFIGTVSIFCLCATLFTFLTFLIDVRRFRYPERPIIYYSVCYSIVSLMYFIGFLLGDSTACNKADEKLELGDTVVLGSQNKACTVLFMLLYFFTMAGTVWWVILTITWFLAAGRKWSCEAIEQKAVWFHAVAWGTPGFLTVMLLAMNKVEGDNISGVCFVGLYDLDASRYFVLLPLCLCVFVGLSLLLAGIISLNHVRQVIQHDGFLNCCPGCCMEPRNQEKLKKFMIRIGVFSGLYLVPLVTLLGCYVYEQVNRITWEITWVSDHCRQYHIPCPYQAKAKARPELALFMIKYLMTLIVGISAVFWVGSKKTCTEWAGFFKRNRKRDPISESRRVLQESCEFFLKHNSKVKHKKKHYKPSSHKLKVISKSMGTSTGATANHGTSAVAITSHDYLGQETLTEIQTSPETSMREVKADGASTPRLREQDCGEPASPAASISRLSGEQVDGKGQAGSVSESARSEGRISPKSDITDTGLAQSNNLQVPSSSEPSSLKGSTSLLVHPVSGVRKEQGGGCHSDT
As to the kind of experiment: intramolecular FRET conformational probe in HEK293 cells. The assay is classed as cell-based.

For assay [5], the target named is T3, FZD4 (FZD4–Nluc; SNAP–FZD4) (Homo sapiens, UniProt Q9ULV1).
T3 construct: full-length receptor with C-terminal Nluc or N-terminal SNAP; expressed in HEK293-derived cells
T3 sequence (Q9ULV1 37-537): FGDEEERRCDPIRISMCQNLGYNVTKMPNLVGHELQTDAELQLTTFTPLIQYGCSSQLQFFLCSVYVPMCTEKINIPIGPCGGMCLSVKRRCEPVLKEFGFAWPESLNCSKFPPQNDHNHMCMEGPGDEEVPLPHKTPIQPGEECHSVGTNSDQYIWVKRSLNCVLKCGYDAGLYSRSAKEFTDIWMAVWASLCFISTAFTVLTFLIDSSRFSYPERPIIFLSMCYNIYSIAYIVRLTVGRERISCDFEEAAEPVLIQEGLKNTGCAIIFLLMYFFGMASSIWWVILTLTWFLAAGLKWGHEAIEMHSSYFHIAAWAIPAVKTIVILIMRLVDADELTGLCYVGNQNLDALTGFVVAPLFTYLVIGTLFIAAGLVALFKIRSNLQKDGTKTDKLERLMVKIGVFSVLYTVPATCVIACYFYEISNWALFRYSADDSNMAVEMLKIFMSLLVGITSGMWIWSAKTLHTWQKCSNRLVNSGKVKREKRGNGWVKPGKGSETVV
Nature of the assay: BRET Venus–mG13 recruitment to FZD4–Nluc. The format is cell-based. As to conditions: negative control subtype.

Assay [6] concerns the target T1, FZD6 (Nluc–FZD6; SNAP–FZD6; SNAP–FZD6–Rluc8; FLAG–FZD6–Nluc). As to the kind of experiment: BRET Venus–mGsi recruitment to SNAP–FZD6–Rluc8. The format is cell-based. As to conditions: agonist; no bell shape.
The target in assay [7] is T4, SMO–Rluc8 (Mus musculus, UniProt P56726).
T4 construct: full-length receptor with C-terminal Rluc8; expressed in HEK293-derived cells
T4 sequence (P56726 33-793): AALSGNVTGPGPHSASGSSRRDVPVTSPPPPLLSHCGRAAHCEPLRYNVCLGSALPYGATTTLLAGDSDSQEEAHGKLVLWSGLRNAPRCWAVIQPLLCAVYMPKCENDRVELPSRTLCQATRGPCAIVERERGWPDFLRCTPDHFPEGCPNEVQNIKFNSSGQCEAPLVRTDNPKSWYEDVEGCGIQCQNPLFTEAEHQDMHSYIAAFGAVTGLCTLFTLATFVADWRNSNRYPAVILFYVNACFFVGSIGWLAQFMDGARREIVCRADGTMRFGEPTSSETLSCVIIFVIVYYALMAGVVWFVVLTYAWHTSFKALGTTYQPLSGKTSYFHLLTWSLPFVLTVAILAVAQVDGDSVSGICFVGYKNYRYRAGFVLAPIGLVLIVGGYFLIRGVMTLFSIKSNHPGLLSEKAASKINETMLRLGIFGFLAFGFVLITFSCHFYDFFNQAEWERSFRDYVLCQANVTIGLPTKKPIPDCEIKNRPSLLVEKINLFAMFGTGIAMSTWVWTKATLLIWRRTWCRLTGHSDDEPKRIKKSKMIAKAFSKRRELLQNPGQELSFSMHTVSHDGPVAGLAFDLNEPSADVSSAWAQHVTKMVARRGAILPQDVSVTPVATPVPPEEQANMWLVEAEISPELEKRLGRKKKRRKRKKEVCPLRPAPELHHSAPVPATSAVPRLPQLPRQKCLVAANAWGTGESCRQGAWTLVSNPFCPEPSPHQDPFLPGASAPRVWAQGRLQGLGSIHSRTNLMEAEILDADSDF
Nature of the assay: BRET Venus–mGsi recruitment to SMO–Rluc8. Particulars: agonist; no bell shape. The format is cell-based.

Assay [8] addresses T5, FZD6–FlAsH–TFP (human) (UniProt O60353).
T5 sequence (chain, FlAsH (fluorescein arsenical hairpin binder) labelled on the FlAsH-binding motif): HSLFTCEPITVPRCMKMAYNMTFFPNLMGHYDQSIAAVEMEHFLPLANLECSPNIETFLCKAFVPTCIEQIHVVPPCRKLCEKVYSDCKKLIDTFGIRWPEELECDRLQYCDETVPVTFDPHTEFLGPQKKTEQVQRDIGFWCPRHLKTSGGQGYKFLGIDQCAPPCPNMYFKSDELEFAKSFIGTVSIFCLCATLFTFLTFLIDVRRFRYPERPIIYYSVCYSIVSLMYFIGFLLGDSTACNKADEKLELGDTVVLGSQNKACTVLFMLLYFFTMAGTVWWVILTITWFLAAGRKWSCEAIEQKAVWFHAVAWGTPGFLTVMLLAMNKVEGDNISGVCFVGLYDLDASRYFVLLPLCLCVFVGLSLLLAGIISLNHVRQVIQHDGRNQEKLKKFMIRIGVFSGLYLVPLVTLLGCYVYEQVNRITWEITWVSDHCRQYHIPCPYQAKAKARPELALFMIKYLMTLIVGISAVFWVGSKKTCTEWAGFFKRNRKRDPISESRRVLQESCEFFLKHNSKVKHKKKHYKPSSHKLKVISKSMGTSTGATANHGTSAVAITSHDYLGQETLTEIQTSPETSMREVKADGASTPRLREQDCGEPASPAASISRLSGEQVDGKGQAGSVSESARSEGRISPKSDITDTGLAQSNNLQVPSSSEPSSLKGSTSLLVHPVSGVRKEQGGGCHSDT

These results are taken from PMC6972889, “Structural insight into small molecule action on Frizzleds” (Nature Communications, 2020).

Where a name gives a salt, the structure may show the parent alone.

By pKd is commonly meant the negative decadic logarithm of the Kd, by convention in mol/L. A lower pKd goes with a large Kd. As to `CC1=C2CC3C(CC=C4C[C@@H](O)CCC43C)C2CCC12O[C@@H]1CC(C)CN(CCNC(=O)CCCCCNC(=O)CCC3=[N+]4C(=Cc5c(C)cc(C)n5[B-]4(F)F)C=C3)C1C2C` (stereo partly drawn) [BODIPY–cyclopamine], the pKd in assay [1] amounted to 6.3 ± 0.1.
By Ki is commonly meant the dissociation constant of the complex between target and ligand, obtained from inhibition or displacement. A low value points to tighter binding. The EC50 is the concentration needed to bring the measured effect to its halfway point. High values mean weaker potency, low ones greater potency. In turn, `CN[C@H]1CC[C@H](N(Cc2cccc(-c3ccncc3)c2)C(=O)c2sc3ccccc3c2Cl)CC1` [SAG1.3, 3-chloro-N-[trans-4-(methylamino)cyclohexyl]-N-[[3-(4-pyridinyl)phenyl]methyl]-benzo[b]thiophene-2-carboxamide dihydrochloride] gave an inhibition constant (Ki) in assay [2] of 2510 nM. The values for the half-maximal effective concentration (EC50) result in assay [3] and in assay [4] were “A similar biphasic concentration–response curve was observed” and 316 nM, respectively. In assay [5], the “BRET Venus-mG13 recruitment to FZD4-Nluc” value was “we did not detect any SAG1.3-induced Venus–mG13 recruitment”.
In the case of `c1ccc2c(Oc3nc(Nc4ccc(N5CCOCC5)cc4)c4ncn(C5CCCCC5)c4n3)cccc2c1` [purmorphamine, 9-cyclohexyl-N-[4-(4-morpholinyl)phenyl]-2-(1-naphthalenyloxy)-9H-purin-6-amine], the EC50 entry in assay [6] was “concentration-dependent recruitment of Venus–mGsi to SMO–Rluc8 (d) and SNAP–FZD6–Rluc8”; in assay [7], “concentration-dependent recruitment of Venus–mGsi to SMO–Rluc8 and SNAP–FZD6–Rluc8”.

B1: recombinant WNT-5A (ligand)
chain: IIGAQPLCSQLAGLSQGQKKLCHLYQDHMQYIGEGAKTGIKECQYQFRHRRWNCSTVDNTSVFGRVMQIGSRETAFTYAVSAAGVVNAMSRACREGELSTCGCSRAARPKDLPRDWLWGGCGDNIDYGYRFAKEFVDARERERIHAKGSYESARILMNLHNNEAGRRTVYNLADVACKCHGVSGSCSLKTCWLQLADFRKVGDALKEKYDSAAAMRLNSRGKLVQVNSRFNSPTTQDLVYIDPSPDYCVRNESTGSLGTQGRLCNKTSEGMDGCELMCCGRGYDQFKTVQTERCHCKFHWCCYVKCKKCTEIVDQFVCK
With B1, in assay [8], the decrease of the intramolecular FRET ratio (FlAsH/TFP) of the FZD6–FRET probe in HEK293 cells with increasing concentrations of WNT-5A; log10EC50 (log10 (ng ml^−1)) was found to be 2.2 and the decrease of the intramolecular FRET ratio (FlAsH/TFP) of the FZD6–FRET probe in HEK293 cells, WNT-5A up to 1000 ng ml^−1; maximum efficacy was determined as 4.9%.
